Here are results for one compound from article PMC10604274, “The Antiviral Activity of Varenicline against Dengue Virus Replication during the Post-Entry Stage” (Biomedicines, 2023).

The test concerns the target T1, DENV-2 NS2B-NS3 protease (Dengue virus 2 Thailand/16681/84, UniProt P29990).
T1 construct: NS2BNS3 gene RT-PCR amplified from DENV-2 16681 RNA genome; AVI tag in forward primer, F2A peptide in reverse primer; in pcDNA3.1-HisC (pcDNA-DEN2_NS2BNS3), transiently expressed in HEK293T; parts of the genome polyprotein; with Serine protease subunit NS2B
The test can be described thus: cell-based.

T1 sequence (P29990 1346-2093 limits assumed): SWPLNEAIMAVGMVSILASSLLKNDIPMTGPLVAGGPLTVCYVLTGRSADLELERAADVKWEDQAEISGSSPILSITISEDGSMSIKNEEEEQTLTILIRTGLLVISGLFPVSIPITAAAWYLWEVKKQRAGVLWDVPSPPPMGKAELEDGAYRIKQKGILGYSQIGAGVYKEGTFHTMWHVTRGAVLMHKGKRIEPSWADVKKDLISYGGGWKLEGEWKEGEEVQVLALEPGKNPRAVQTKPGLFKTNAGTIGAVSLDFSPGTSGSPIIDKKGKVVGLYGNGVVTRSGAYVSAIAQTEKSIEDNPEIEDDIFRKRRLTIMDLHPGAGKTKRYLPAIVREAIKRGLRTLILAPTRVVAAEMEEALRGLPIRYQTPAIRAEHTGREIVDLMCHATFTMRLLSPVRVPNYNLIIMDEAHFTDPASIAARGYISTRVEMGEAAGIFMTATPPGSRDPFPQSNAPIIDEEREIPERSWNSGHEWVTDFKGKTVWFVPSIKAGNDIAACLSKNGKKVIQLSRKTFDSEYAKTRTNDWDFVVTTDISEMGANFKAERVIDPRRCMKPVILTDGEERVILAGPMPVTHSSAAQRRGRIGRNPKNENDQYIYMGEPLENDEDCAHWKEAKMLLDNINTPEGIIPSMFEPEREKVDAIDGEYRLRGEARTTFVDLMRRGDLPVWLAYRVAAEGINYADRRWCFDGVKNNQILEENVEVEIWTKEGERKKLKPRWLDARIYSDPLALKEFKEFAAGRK

On to `c1cnc2cc3c(cc2n1)C1CNCC3C1` [varenicline], for which the IC50 was greater than 20 µM.

In general, IC50 refers to the midpoint of a concentration-inhibition curve. A higher IC50 goes with lower potency.
